Assay in all cases: microscale thermophoresis, labelled His-tagged protein
Type in all cases: binding
Common to all, as to settings: 50 mM NaH2PO4, 500 mM NaCl, pH 5.7, 21 °C; 50 nM protein
In general terms: MST reads how a fluorescent partner responds to local heating, with and without ligand.

One test has as its target T1, TrpR (Escherichia coli, UniProt P0A881).
T1 construct: labelled through His-tag (RED-tris-NTA)

The next test concerns the target T2, SoxR (Escherichia coli, UniProt P0ACS2).
T2 construct: labelled through His-tag (RED-tris-NTA)
T2 sequence (P0ACS2 1-154): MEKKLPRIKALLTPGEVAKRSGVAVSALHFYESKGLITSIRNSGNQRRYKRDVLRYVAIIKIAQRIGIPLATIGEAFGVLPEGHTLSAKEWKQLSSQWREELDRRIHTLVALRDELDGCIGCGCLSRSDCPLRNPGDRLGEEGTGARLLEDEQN

For the next test, the target named is T3, ArgR (Escherichia coli, UniProt P0A6D0).
T3 construct: labelled through His-tag (RED-tris-NTA)
T3 sequence (P0A6D0 1-156): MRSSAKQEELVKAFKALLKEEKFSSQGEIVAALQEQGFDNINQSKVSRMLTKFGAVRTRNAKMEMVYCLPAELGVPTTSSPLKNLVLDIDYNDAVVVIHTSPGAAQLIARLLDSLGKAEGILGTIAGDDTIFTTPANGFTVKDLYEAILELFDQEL

Another test concerns the target T4, DhaR (Escherichia coli, UniProt P76016).
T4 construct: labelled through His-tag (RED-tris-NTA)
T4 sequence (P76016 1-639): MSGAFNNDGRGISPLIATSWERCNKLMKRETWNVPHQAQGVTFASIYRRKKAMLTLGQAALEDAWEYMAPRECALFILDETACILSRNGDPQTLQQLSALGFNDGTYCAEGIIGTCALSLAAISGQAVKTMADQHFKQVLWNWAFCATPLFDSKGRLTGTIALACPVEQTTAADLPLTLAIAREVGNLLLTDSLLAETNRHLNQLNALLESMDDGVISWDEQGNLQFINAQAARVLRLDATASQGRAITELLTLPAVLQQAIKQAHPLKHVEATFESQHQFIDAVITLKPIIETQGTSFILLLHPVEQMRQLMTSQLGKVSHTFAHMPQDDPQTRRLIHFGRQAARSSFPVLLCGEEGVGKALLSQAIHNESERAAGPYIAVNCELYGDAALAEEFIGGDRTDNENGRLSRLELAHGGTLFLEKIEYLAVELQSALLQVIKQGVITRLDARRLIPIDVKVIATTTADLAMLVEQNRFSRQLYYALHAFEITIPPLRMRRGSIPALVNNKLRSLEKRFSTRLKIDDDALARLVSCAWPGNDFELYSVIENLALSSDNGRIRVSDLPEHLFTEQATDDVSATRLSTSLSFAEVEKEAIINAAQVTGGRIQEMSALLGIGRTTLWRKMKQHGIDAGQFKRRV

A further test addresses T5, SgrR (Escherichia coli, UniProt P33595).
T5 construct: labelled through His-tag (RED-tris-NTA)
T5 sequence (P33595 1-551): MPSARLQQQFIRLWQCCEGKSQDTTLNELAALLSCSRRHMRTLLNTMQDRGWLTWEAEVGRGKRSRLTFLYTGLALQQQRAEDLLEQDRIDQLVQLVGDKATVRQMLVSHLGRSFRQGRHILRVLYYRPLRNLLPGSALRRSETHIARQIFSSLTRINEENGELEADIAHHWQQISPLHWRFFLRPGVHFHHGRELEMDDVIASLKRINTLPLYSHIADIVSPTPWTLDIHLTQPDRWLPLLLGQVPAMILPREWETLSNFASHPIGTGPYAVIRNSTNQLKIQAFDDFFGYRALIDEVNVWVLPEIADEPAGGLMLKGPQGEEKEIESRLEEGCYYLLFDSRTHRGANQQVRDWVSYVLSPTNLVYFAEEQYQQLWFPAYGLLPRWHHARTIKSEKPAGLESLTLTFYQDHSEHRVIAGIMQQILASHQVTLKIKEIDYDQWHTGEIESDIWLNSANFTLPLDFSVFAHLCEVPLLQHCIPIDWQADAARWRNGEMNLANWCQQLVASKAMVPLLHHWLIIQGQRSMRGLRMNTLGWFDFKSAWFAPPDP

This note sets out measurements from publication PMC6775132, “Systematic identification of metabolites controlling gene expression in E. coli” (Nature Communications, 2019).

Turning to `N[C@@H](Cc1c[nH]c2ccccc12)C(=O)O` [trp, tryptophan], the KD result on TrpR is “also confirmed the known arginine–ArgR and tryptophan–TrpR interactions”; at SoxR it was “In vitro MST assays validated that SoxR binds tryptophan”.

In the case of `N=C(N)NCCC[C@H](N)C(=O)O` [arg, arginine], at ArgR, the KD result was “also confirmed the known arginine–ArgR and tryptophan–TrpR interactions”. With `O=C(CO)COP(=O)(O)O` [dhap, dihydroxyacetone phosphate], the KD entry on DhaR is given as “DhaR binds the glycolysis intermediate dihydroxyacetone phosphate (DHAP)”. As to `N[C@@H](CCC(=O)O)C(=O)O` [glu, glutamate], on SgrR, the KD result is “SgrR binds glutamate”.
